From PubChem BioAssay (NCI)
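GI50 is the concentration that inhibits growth by half. TGI: concentration producing complete growth inhibition.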

Key:
Experiment in all cases: growth of human tumour cells (NCI), 384-well format
786-0 renal = system: 786-0 renal
A498 renal = system: A498 renal
A549 NSCLC = system: A549 NSCLC
ACHN renal = system: ACHN renal
BT-549 breast = system: BT-549 breast
CAKI-1 renal = system: CAKI-1 renal
COLO 205 colon = system: COLO 205 colon
DU-145 prostate = system: DU-145 prostate
EKVX NSCLC = system: EKVX NSCLC
HCT-116 colon = system: HCT-116 colon
HCT-15 colon = system: HCT-15 colon
HL-60(TB) leukemia = system: HL-60(TB) leukemia
HOP-62 NSCLC = system: HOP-62 NSCLC
HOP-92 NSCLC = system: HOP-92 NSCLC
HS 578T breast = system: HS 578T breast
HT29 colon = system: HT29 colon
IGROV1 ovarian = system: IGROV1 ovarian
K-562 leukemia = system: K-562 leukemia
KM12 colon = system: KM12 colon
M14 melanoma = system: M14 melanoma
MALME-3M melanoma = system: MALME-3M melanoma
MCF7 breast = system: MCF7 breast
MDA-MB-231 breast = system: MDA-MB-231 breast
MDA-MB-435 melanoma = system: MDA-MB-435 melanoma
MDA-MB-468 breast = system: MDA-MB-468 breast
MOLT-4 leukemia = system: MOLT-4 leukemia
NCI-H226 lung = system: NCI-H226 lung
NCI-H23 lung = system: NCI-H23 lung
NCI-H322M lung = system: NCI-H322M lung
NCI-H460 NSCLC = system: NCI-H460 NSCLC
NCI-H522 lung = system: NCI-H522 lung
OVCAR-3 ovarian = system: OVCAR-3 ovarian
OVCAR-4 ovarian = system: OVCAR-4 ovarian
OVCAR-5 ovarian = system: OVCAR-5 ovarian
OVCAR-8 ovarian = system: OVCAR-8 ovarian
PC-3 prostate = system: PC-3 prostate
RXF 393 renal = system: RXF 393 renal
SF-268 CNS = system: SF-268 CNS
SF-295 CNS = system: SF-295 CNS
SF-539 CNS = system: SF-539 CNS
SK-MEL-2 melanoma = system: SK-MEL-2 melanoma
SK-MEL-28 melanoma = system: SK-MEL-28 melanoma
SK-MEL-5 melanoma = system: SK-MEL-5 melanoma
SK-OV-3 ovarian = system: SK-OV-3 ovarian
SN12C renal = system: SN12C renal
SNB-19 CNS = system: SNB-19 CNS
SNB-75 CNS = system: SNB-75 CNS
SR leukemia = system: SR leukemia
SW-620 colon = system: SW-620 colon
T-47D breast = system: T-47D breast
TK-10 renal = system: TK-10 renal
U251 glioblastoma = system: U251 glioblastoma
UACC-257 melanoma = system: UACC-257 melanoma
UACC-62 melanoma = system: UACC-62 melanoma
UO-31 renal = system: UO-31 renal

`Cn1cc(Nc2nccc(-c3ccc4c(c3)CN(C3COC3)CC[C@H]4NC(=O)c3cn(C(C)(C)C)nn3)n2)cn1` showed a GI50 ([…]-0 renal) greater than 100 µM, a TGI (786-0 renal) greater than 100 µM and a GI50 (A498 renal) greater than 100 µM. The TGI (A498 renal) was greater than 100 µM, the GI50 (A549 NSCLC) was 60.9 µM and the TGI (A549 NSCLC) was greater than 100 µM. For the same compound, the GI50 (ACHN renal) was 41.9 µM, the TGI (ACHN renal) was greater than 100 µM and the GI50 (BT-549 breast) was 51.6 µM. It also gave a TGI (BT-549 breast) greater than 100 µM, a GI50 (CAKI-1 renal) of 44.7 µM and a TGI (CAKI-1 renal) greater than 100 µM. It also gave a GI50 (COLO 205 colon) of 37.7 µM, a TGI (COLO 205 colon) greater than 100 µM and a GI50 (DU-145 prostate) greater than 100 µM. For the same compound, the TGI (DU-145 prostate) was greater than 100 µM, the GI50 (EKVX NSCLC) was 28 µM and the TGI (EKVX NSCLC) was greater than 100 µM. For the same compound, the GI50 (HCT-116 colon) was 44.5 µM, the TGI (HCT-116 colon) was greater than 100 µM and the GI50 (HCT-15 colon) was greater than 100 µM. The TGI (HCT-15 colon) was greater than 100 µM, the GI50 (HL-60(TB) leukemia) was 35.1 µM and the TGI (HL-60(TB) leukemia) was greater than 100 µM. For the same compound, the GI50 (HOP-62 NSCLC) was greater than 100 µM, the TGI (HOP-62 NSCLC) was greater than 100 µM and the GI50 (HOP-92 NSCLC) was 52.7 µM. It also gave a TGI (HOP-92 NSCLC) greater than 100 µM, a GI50 (HS 578T breast) of 84.7 µM and a TGI (HS 578T breast) greater than 100 µM. It also gave a GI50 (HT29 colon) of 32.1 µM, a TGI (HT29 colon) greater than 100 µM and a GI50 (IGROV1 ovarian) of 18.6 µM. It also gave a TGI (IGROV1 ovarian) of 54.4 µM, a GI50 (K-562 leukemia) of 11.2 µM and a TGI (K-562 leukemia) of 24.6 µM. The GI50 (KM12 colon) was 56 µM, the TGI (KM12 colon) was greater than 100 µM and the GI50 (M14 melanoma) was 36.5 µM. For the same compound, the TGI (M14 melanoma) was greater than 100 µM, the GI50 (MALME-3M melanoma) was 45.5 µM and the TGI (MALME-3M melanoma) was greater than 100 µM. For the same compound, the GI50 (MCF7 breast) was 20.8 µM, the TGI (MCF7 breast) was greater than 100 µM and the GI50 (MDA-MB-231 breast) was 78.1 µM. The TGI (MDA-MB-231 breast) was greater than 100 µM, the GI50 (MDA-MB-435 melanoma) was 43.2 µM and the TGI (MDA-MB-435 melanoma) was greater than 100 µM. For the same compound, the GI50 (MDA-MB-468 breast) was 23.7 µM, the TGI (MDA-MB-468 breast) was greater than 100 µM and the GI50 (MOLT-4 leukemia) was 15.3 µM. For the same compound, the TGI (MOLT-4 leukemia) was 29.4 µM, the GI50 (NCI-H226 lung) was 33 µM and the TGI (NCI-H226 lung) was greater than 100 µM. For the same compound, the GI50 (NCI-H23 lung) was 30.2 µM, the TGI (NCI-H23 lung) was greater than 100 µM and the GI50 (NCI-H322M lung) was 68 µM. The TGI (NCI-H322M lung) was greater than 100 µM, the GI50 (NCI-H460 NSCLC) was 44.2 µM and the TGI (NCI-H460 NSCLC) was greater than 100 µM. For the same compound, the GI50 (NCI-H522 lung) was 22.1 µM, the TGI (NCI-H522 lung) was 74 µM and the GI50 (OVCAR-3 ovarian) was 60.9 µM. The TGI (OVCAR-3 ovarian) was greater than 100 µM, the GI50 (OVCAR-4 ovarian) was 54.4 µM and the TGI (OVCAR-4 ovarian) was greater than 100 µM. It also gave a GI50 (OVCAR-5 ovarian) of 61.5 µM, a TGI (OVCAR-5 ovarian) greater than 100 µM and a GI50 (OVCAR-8 ovarian) greater than 100 µM. It also gave a TGI (OVCAR-8 ovarian) greater than 100 µM, a GI50 (PC-3 prostate) greater than 100 µM and a TGI (PC-3 prostate) greater than 100 µM. For the same compound, the GI50 (RXF 393 renal) was 11.4 µM, the TGI (RXF 393 renal) was 54.1 µM and the GI50 (SF-268 CNS) was greater than 100 µM. The TGI (SF-268 CNS) was greater than 100 µM, the GI50 (SF-295 CNS) was greater than 100 µM and the TGI (SF-295 CNS) was greater than 100 µM. For the same compound, the GI50 (SF-539 CNS) was 49.2 µM, the TGI (SF-539 CNS) was greater than 100 µM and the GI50 (SK-MEL-2 melanoma) was 66.3 µM. For the same compound, the TGI (SK-MEL-2 melanoma) was greater than 100 µM, the GI50 (SK-MEL-28 melanoma) was 37.1 µM and the TGI (SK-MEL-28 melanoma) was greater than 100 µM. It also gave a GI50 (SK-MEL-5 melanoma) of 27.3 µM, a TGI (SK-MEL-5 melanoma) greater than 100 µM and a GI50 (SK-OV-3 ovarian) of 29.5 µM. It also gave a TGI (SK-OV-3 ovarian) greater than 100 µM, a GI50 (SN12C renal) of 46.7 µM and a TGI (SN12C renal) greater than 100 µM. For the same compound, the GI50 (SNB-19 CNS) was greater than 100 µM, the TGI (SNB-19 CNS) was greater than 100 µM and the GI50 (SNB-75 CNS) was 45.8 µM. For the same compound, the TGI (SNB-75 CNS) was greater than 100 µM, the GI50 (SR leukemia) was 12.9 µM and the TGI (SR leukemia) was 27.1 µM. It also gave a GI50 (SW-620 colon) of 48.5 µM, a TGI (SW-620 colon) greater than 100 µM and a GI50 (T-47D breast) of 30.9 µM. The TGI (T-47D breast) was greater than 100 µM, the GI50 (TK-10 renal) was 70.8 µM and the TGI (TK-10 renal) was greater than 100 µM. The GI50 (U251 glioblastoma) was greater than 100 µM, the TGI (U251 glioblastoma) was greater than 100 µM and the GI50 (UACC-257 melanoma) was 43.4 µM. The TGI (UACC-257 melanoma) was greater than 100 µM, the GI50 (UACC-62 melanoma) was 27.3 µM and the TGI (UACC-62 melanoma) was greater than 100 µM. For the same compound, the GI50 (UO-31 renal) was 48 µM and the TGI (UO-31 renal) was greater than 100 µM.
